Assay [1] deals with HepG2. Briefly: Inhibition of lipid accumulation in human HepG2 cells at 20 uM incubated for 24 hrs by Oil Red O staining analysis relative to oleic acid. In kind it is functional.
Assay [2] has as its system HepG2. Briefly: Increase in glycerol release in human HepG2 cells at 25 uM incubated for 24 hrs by microplate reader analysis. In kind it is functional, cell-based.
For assay [3], the system named is Melan-a. Briefly: Reduction in TRP1 protein expression in mouse Melan-a cells at 5 uM measured after 72 hrs by Western blot analysis. Format: functional, cell-based.
Assay [4] deals with Melan-a. Briefly: Reduction in MITF protein expression in mouse Melan-a cells at 5 uM measured after 72 hrs by Western blot analysis. Format: functional, cell-based. In general terms: Immunoblotting shows a protein as a band on a membrane.
Assay [5] can be described thus: Reduction in melanin production in mouse Melan-a cells at 5 uM measured after 72 hrs by microplate reader. Format: functional.
The test system of assay [6] is Melan-a. Briefly: Reduction in tyrosinase protein expression in mouse Melan-a cells at 5 uM measured after 72 hrs by Western blot analysis. In kind it is functional, cell-based.
In assay [7] the target is T1, Tyrosinase (Agaricus bisporus) (UniProt O42713).
T1 sequence (whole entry): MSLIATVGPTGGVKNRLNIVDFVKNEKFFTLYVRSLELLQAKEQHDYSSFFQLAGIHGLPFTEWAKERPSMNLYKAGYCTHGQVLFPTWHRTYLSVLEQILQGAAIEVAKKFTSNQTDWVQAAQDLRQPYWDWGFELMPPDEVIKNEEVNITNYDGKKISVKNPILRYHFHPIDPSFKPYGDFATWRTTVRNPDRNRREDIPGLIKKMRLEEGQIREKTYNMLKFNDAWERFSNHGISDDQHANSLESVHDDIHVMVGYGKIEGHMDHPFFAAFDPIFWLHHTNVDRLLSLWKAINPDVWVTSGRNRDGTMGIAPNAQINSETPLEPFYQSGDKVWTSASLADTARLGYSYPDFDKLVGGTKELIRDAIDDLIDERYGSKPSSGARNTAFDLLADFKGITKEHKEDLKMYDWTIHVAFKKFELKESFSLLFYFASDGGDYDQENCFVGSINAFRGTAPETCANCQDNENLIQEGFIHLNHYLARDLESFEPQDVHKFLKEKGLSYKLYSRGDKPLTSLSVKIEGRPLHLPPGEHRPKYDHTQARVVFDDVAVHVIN
Nature of the assay: Inhibition of mushroom tyrosinase activity at 5 uM measured after 1 hr by microplate reader analysis.

Molecules are shown by their SMILES. Activity calls are given as the source filed them. The calls are words filed in the database; no cut-off is given here.

Consider `C/C(=C\CC1=C[C@@H]2C(=O)C(O)=C[C@]12C(C)C)CO`, for which the inhibition at 20 µM with HepG2 [1] came to 29%.

Compound `C/C(=C\CC1=C[C@H]2C(=O)C(O)=C[C@@]12C(C)C)CO` displayed an inhibition at 20 µM in the assay on HepG2 [1] of 29%.

On to `C/C(=C\C[C@]12C=C[C@@]1(O)C(=O)C=C2C(C)C)CO`, for which the result in the assay with HepG2 [2] was Active. Besides, 20 µM produced 29% inhibition with HepG2 [1].

In the case of `C/C(=C\C[C@@]12C=C[C@]1(O)C(=O)C=C2C(C)C)CO`, the result in the assay on HepG2 [2] was Active. In the assay on HepG2 [1], the inhibition at 20 µM came out at 29%.

As to `C/C(=C\Cc1ccc(=O)c(O)cc1C(C)C)CO`, the outcome in the assay with Melan-a [3], with HepG2 [2], with Melan-a [4] and in the assay on Melan-a [6] was Active. The compound further gave an inhibition at 20 µM with HepG2 [1] of 29%. The same compound showed an inhibition at 5 µM in assay [5] of 10%. Further, in assay [7], the inhibition entry is “Active”.

As a reminder, the inhibition is how much of the control response was suppressed.

For the origin of these results see ChEMBL document CHEMBL4842334, “Tropolone-Bearing Sesquiterpenes from Juniperus chinensis: Structures, Photochemistry and Bioactivity” (2021).
